Test results reported in US6506901B2, “Substituted 2-(S)-hydroxy-3-(piperidin-4-yl-methylamino)-propyl ethers and substituted 2-aryl-2-(R)-hydroxy-1-(piperidin-4-yl-methyl)-ethylamine β-3 adrenergic receptor agonists” (Wyeth, priority 2000, dated 2003).

Target: T1, human β3 receptors (Homo sapiens, UniProt P13945)
T1 construct: Full length β3 AR clones (402 amino acids) containing the last 6 amino acids of hβ3—AR; expressed in transfected cells; host or cells: CHO cells
Assay: cAMP response (SPA) in CHO cells expressing cloned human β3 adrenergic receptor
Assay type: cell-based
Settings: for EC50: CHO cells expressing human β3 receptor, cAMP, 30 min incubation, 10^−9 M to 10^−5 M; for IA(β3): maximal response compared to the maximal response of isoproterenol at 10^−5 M
Experimental: Binding to the receptors was measured in Chinese Hamster ovary (CHO) cells that were transfected with adrenergic receptors.
Cloning of Human β3-AR Genomic DNA: cDNA was constructed by ligating four polymerase chain reaction (PCR) products using the following primers: an ATG-NarI fragment, sense primer 5′-[…]3′ and anti-sense primer 5′ […]3′; a NarI-AccI fragment, 5′ […]3′ as sense and 5′ […]3′ as anti-sense primer; an AccIi-StyI fragment, sense primer 5′ […]3′ and anti-sense primer 5′ […]3′ and a StyI-TAG fragment, with sense primer 5′ […]3′ and anti-sense primer 5′ […]3′. The corresponding primer sequences are described in Mantzoros, C. […] The four fragments are ligated into a pUC 18 plasmid (Gibco-BRL) and sequenced.
CHO cells were grown in 24-well tissue culture plates in Dulbecco's Modified Eagle Media with 10% fetal bovine serum, MEM non-essential amino acids, Penicillin-Streptompycin and Geneticin. […] Isoproterenol (10^−5 M) was used as an internal standard for comparison of activity. Cells were incubated at 37° C. on a rocker for 30 min with the β3 cells and 15 min for β1 and β2 cells. Incubation was stopped with the addition of 0.2N HCl and neutralized with 2.5N NaOH. The plates, containing the cells and neutralized media, were stored at −20 degrees celsius until ready to test for cAMP using the SPA test kit (Amersham).
Data Analysis and Results: Data collected from the SPA test procedure were analyzed as per cent of the maximal isoproterenol response at 10^−5 M. Activity curves were plotted using the SAS statistical and graphics software.

T1 sequence (P13945 whole entry): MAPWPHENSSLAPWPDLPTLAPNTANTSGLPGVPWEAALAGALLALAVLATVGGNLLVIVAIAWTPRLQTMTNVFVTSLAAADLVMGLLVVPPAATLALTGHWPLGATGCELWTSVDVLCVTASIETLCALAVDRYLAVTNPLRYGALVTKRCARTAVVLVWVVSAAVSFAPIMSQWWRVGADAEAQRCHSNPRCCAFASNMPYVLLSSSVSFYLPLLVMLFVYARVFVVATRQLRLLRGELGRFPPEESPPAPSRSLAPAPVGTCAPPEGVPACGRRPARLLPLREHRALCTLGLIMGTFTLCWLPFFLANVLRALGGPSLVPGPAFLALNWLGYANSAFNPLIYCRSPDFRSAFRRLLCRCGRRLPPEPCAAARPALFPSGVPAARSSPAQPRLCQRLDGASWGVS

EC50	IA(β3)	SMILES
34 nM	0.94	CS(=O)(=O)Nc1cc(C(O)CNCC2CCN(S(=O)(=O)c3ccc(-c4noc(CCC(=O)O)n4)cc3)CC2)ccc1O (stereo in doubt) [Example 105, 3-(3-{4-[(4-{[((2S)-2-Hydroxy-2-{4-hydroxy-3-[(methylsulfonyl)amino]-phenyl}ethyl)amino]methyl}-1-piperidinyl)sulfonyl]phenyl}-1,2,4-oxadiazol-5-yl)propanoic Acid]
31 nM	1.2	CS(=O)(=O)Nc1cc([C@@H](O)CNCC2CCN(c3ccc(C(=O)NC(Cc4ccccc4)C(=O)O)cc3)CC2)ccc1O (stereo in doubt) [Example 109, (2S)-2-{[4-(4-{[((2R)-2-Hydroxy-2-{4-hydroxy-3-[(methylsulfonyl)amino]phenyl}-ethyl)amino]methyl}piperidin-1-yl)benzoyl]amino}-3-phenylpropanoic Acid]
66 nM	1	CS(=O)(=O)Nc1cc([C@@H](O)CNCC2CCN(c3ccc(C(=O)N4CCCC4C(=O)O)cc3)CC2)ccc1O (stereo in doubt) [Example 115, (2S)-1-[4-(4-{[((2R)-2-Hydroxy-2-{4-hydroxy-3-[(methylsulfonyl)amino]phenyl}-ethyl)amino]methyl}piperidin-1-yl)benzoyl]pyrrolidine-2-carboxylic Acid]
210 nM	0.84	O=c1[nH]c2ccc(OCC(O)CNCC3CCN(S(=O)(=O)c4cccc(Br)c4)CC3)cc2[nH]1 (stereo in doubt) [Example 178]
596 nM	0.62	O=C1c2ccccc2-c2c(OC[C@@H](O)CNCC3CCN(CCC(F)(F)F)CC3)cccc21 [Example 13, 4-(2-Hydroxy-3-{[1-(3,3,3-trifluoro-propyl)-piperidin-4-ylmethyl]-amino}-propoxy)-fluoren-9-one]
219 nM	0.75	OC1c2ccccc2-c2c(OC[C@@H](O)CNCC3CCN(CCC(F)(F)F)CC3)cccc21 (stereo partly drawn) [Example 14, 4-((2S)-2-Hydroxy-3-{[1-(3,3,3-trifluoro-propyl)-piperidin-4-ylmethyl]-amino}-propoxy)-9H-fluoren-9-ol]
12500 nM	0.52	Oc1ccc2[nH]c3ccccc3c2c1OC[C@@H](O)CNCC1CCN(CCC(F)(F)F)CC1 [Example 15, 4-((2S)-2-Hydroxy-3-{[1-(3,3,3-trifluoro-propyl)-piperidin-4-ylmethyl]-amino}-propoxy)-9H-carbazol-3-ol]
1240 nM	0.82	O[C@@H](CNCC1CCN(CCC(F)(F)F)CC1)COc1c(Cl)ccc2[nH]c3ccccc3c12 [Example 19, (2S)-1-(3-Chloro-9H-carbazol-4-yloxy)-3-{[1-(3,3,3-trifluoro-propyl)-piperidin-4-ylmethyl]-amino}-propan-2-ol]
1210 nM	0.53	O=c1[nH]c2cccc(OC[C@@H](O)CNCC3CCN(CCC(F)(F)F)CC3)c2[nH]1 [Example 22, 4-((2S)-2-Hydroxy-3-{[1-(3,3,3-trifluoro-propyl)-piperidin-4-ylmethyl]-amino}-propoxy)-1,3-dihydro-benzoimidazol-2-one]
1090 nM	0.66	Cc1cc2c(OC[C@@H](O)CNCC3CCN(CCC(F)(F)F)CC3)cccc2[nH]1 [Example 23, (2S)-1-(2-Methyl-1H-indol-4-yloxy)-3-{[1-(3,3,3-trifluoro-propyl)-piperidin-4-ylmethyl]-amino}-propan-2-ol]
943 nM	0.98	O[C@@H](CNCC1CCN(CCCC(F)(F)F)CC1)COc1cccc2[nH]c3ccccc3c12 [Example 24, (2S)-1-(9H-Carbazol-4-yloxy)-3-{[1-(4,4,4-trifluoro-butyl)-piperidin-4-ylmethyl]-amino}-propan-2-ol]
1030 nM	0.51	CCCCCCCCN1CCC(CNC[C@H](O)COc2cccc3[nH]c4ccccc4c23)CC1 [Example 27]
123 nM	0.8	CC(C)S(=O)(=O)N1CCC(CNC[C@H](O)COc2cccc3[nH]c4ccccc4c23)CC1 [Example 32, (2S)-1-(9H-Carbazol-4-yloxy)-3-{[1-(ropane-2-sulfonyl)-piperidin-4-ylmethyl]-amino}-propan-2-ol]
141 nM	0.68	COc1ccc(S(=O)(=O)N2CCC(CNC[C@H](O)COc3cccc4[nH]c5ccccc5c34)CC2)cc1 [Example 33, (2S)-1-(9H-Carbazol-4-yloxy)-3-{[1-(4-methoxy-benzenesulfonyl)-piperidin-4-ylmethyl]-amino}-propan-2-ol]
7000 nM	0.36	COc1ccc(S(=O)(=O)N2CCC(CNC[C@H](O)COc3c(Br)ccc4[nH]c5ccccc5c34)CC2)cc1 [Example 34, (2S)-1-(3-Bromo-9H-carbazol-4-yloxy)-3-{[1-(4-methoxy-benzenesulfonyl)-piperidin-4-ylmethyl]-amino}-propan-2-ol]
376 nM	1.04	COc1ccc(S(=O)(=O)N2CCC(CNC[C@H](O)COc3ccc(O)cc3)CC2)cc1 [Example 37, 4-((2S)-2-Hydroxy-3-{[1-(4-methoxy-benzenesulfonyl)-piperidin-4-ylmethyl]-amino}-propoxy)-phenol]
365 nM	0.36	COc1ccc(S(=O)(=O)N2CCC(CNC[C@H](O)COc3cccc4c3-c3ccccc3C4=O)CC2)cc1 [Example 38, 4-((2S)-2-Hydroxy-3-{[1-(4-methoxy-benzenesulfonyl)-piperidin-4-ylmethyl]-amino}-propoxy)-fluoren-9-one]
30 nM	0.81	COc1ccc(S(=O)(=O)N2CCC(CNC[C@H](O)COc3cccc4[nH]c(=O)[nH]c34)CC2)cc1 [Example 39, 4-((2S)-2-Hydroxy-3-{[1-(4-methoxy-benzenesulfonyl)-piperidin-4-ylmethyl]-amino}-propoxy)-1,3-dihydro-benzoimidazol-2-one]
490 nM	0.23	COc1ccc(S(=O)(=O)N2CCC(CNC[C@H](O)COc3cccc4[nH]c(C)cc34)CC2)cc1 [Example 40, 4-((2S)-2-Hydroxy-3-{[1-(4-methoxy-benzenesulfonyl)-piperidin-4-ylmethyl]-amino}-propoxy)-2-methyl-1H-indole]
95 nM	0.65	COc1ccc(S(=O)(=O)N2CCC(CNC[C@H](O)COc3cccc4c3CC(=O)N4)CC2)cc1 [Example 41, 4-((2S)-3-{[1-(4-Methoxy-benzenesulfonyl)-piperidin-4-ylmethyl]-amino}-2-hydroxy-propoxy)-1,3-dihydro-indol-2-one]
150 nM	0.69	COc1ccc(S(=O)(=O)N2CCC(CNC[C@H](O)COc3cccc4[nH]c(=O)[nH]c34)CC2)cc1OC [Example 42, 4-((2S)-2-Hydroxy-3-{[1-(3,4-dimethoxy-benzenesulfonyl)-piperidin-4-ylmethyl]-amino}-propoxy)-1,3-dihydro-benzoimidazol-2-one]
880 nM	0.68	COc1ccc(S(=O)(=O)N2CCC(CNC[C@H](O)COc3ccc(O)cc3)CC2)cc1OC [Example 43, 4-((2S)-2-Hydroxy-3-{[1-(3,4-dimethoxy-benzenesulfonyl)-piperidin-4-ylmethyl]-amino}-propoxy)-phenol]
421 nM	0.46	COc1ccc(S(=O)(=O)N2CCC(CNC[C@H](O)COc3cccc4c3CC(=O)N4)CC2)cc1OC [Example 44, 4-((2S)-3-{[1-(3,4-Dimethoxy-benzenesulfonyl)-piperidin-4-ylmethyl]-amino}-2-hydroxy-propoxy)-1,3-dihydro-indol-2-one]
610 nM	1	O=[N+]([O-])c1ccc(S(=O)(=O)N2CCC(CNC[C@H](O)COc3ccc(O)cc3)CC2)cc1 [Example 45, 4-((2S)-2-Hydroxy-3-{[1-(4-nitro-benzenesulfonyl)-piperidin-4-ylmethyl]-amino}-propoxy)-phenol]
222 nM	0.81	O=C1Cc2c(cccc2OC[C@@H](O)CNCC2CCN(S(=O)(=O)c3ccc(OC(F)(F)F)cc3)CC2)N1 [Example 46, 4-((2S)-2-Hydroxy-3-{[1-(4-trifluoromethoxy-benzenesulfonyl)-piperidin-4-ylmethyl]-amino}-propoxy)-1,3-dihydro-indol-2-one]
250 nM	0.7	O=S(=O)(c1ccc(OC(F)(F)F)cc1)N1CCC(CNC[C@H](O)COc2ccc(O)cc2)CC1 [Example 47, 4-((2S)-2-Hydroxy-3-{[1-(4-trifluoromethoxy-benzenesulfonyl)-piperidin-4-ylmethyl]-amino}-propoxy)-phenol]
2360 nM	0.4	Cn1cnc(S(=O)(=O)N2CCC(CNC[C@H](O)COc3ccc(O)cc3)CC2)c1 [Example 49, 4-((2S)-2-Hydroxy-3-{[1-(1-methyl-1H-imidazole-4-sulfonyl)-piperidin-4-ylmethyl]-amino}-propoxy)-phenol]
